Laboratory results from ChEMBL document CHEMBL2346657, “Synthesis of novel 2-amino-4-(5'-substituted 2'-phenyl-1H-indol-3'-yl)-6-aryl-4H-pyran-3-carbonitrile derivatives as antimicrobial and antioxidant agents” (2013).
The source made the active and inactive calls. Unless noted, no cut-off for these calls is given here.

Columns and labels:
Format in all cases: functional
Aspergillus oryzae [1] = experiment: Antimicrobial activity against Aspergillus oryzae MTCC 3567 at 500 ug/ml after 72 hrs by cup plate method; details: MTCC 3567, 72 h, read-out: IZ
Pseudomonas aeruginosa [2] = experiment: Antimicrobial activity against Pseudomonas aeruginosa MTCC 1688 at 1000 ug/ml after 24 hrs by cup plate method; details: MTCC 1688, 24 h, read-out: IZ
Staphylococcus aureus [3] = experiment: Antimicrobial activity against Staphylococcus aureus ATCC 29513 at 750 ug/ml after 24 hrs by cup plate method; details: ATCC 29513, 24 h, read-out: IZ
Aspergillus flavus [4] = experiment: Antimicrobial activity against Aspergillus flavus MTCC 1973 at 500 ug/ml after 72 hrs by cup plate method; details: MTCC 1973, 72 h, read-out: IZ
Staphylococcus aureus [5] = experiment: Antimicrobial activity against Staphylococcus aureus ATCC 29513 at 1000 ug/ml after 24 hrs by cup plate method; details: ATCC 29513, 24 h, read-out: IZ
Pseudomonas aeruginosa [6] = experiment: Antimicrobial activity against Pseudomonas aeruginosa MTCC 1688 at 500 ug/ml after 24 hrs by cup plate method; details: MTCC 1688, 24 h, read-out: IZ
Pseudomonas aeruginosa [7] = experiment: Antimicrobial activity against Pseudomonas aeruginosa MTCC 1688 at 750 ug/ml after 24 hrs by cup plate method; details: MTCC 1688, 24 h, read-out: IZ
Escherichia coli [8] = experiment: Antimicrobial activity against Escherichia coli MTCC 723 at 500 ug/ml after 24 hrs by cup plate method; details: MTCC 723, 24 h, read-out: IZ
Aspergillus terreus [9] = experiment: Antimicrobial activity against Aspergillus terreus MTCC 1782 at 750 ug/ml after 72 hrs by cup plate method; details: MTCC 1782, 72 h, read-out: IZ
Aspergillus niger [10] = experiment: Antimicrobial activity against Aspergillus niger MTCC 281 at 750 ug/ml after 72 hrs by cup plate method; details: MTCC 281, 72 h, read-out: IZ
Aspergillus niger [11] = experiment: Antimicrobial activity against Aspergillus niger MTCC 281 at 500 ug/ml after 72 hrs by cup plate method; details: MTCC 281, 72 h, read-out: IZ
Aspergillus oryzae [12] = experiment: Antimicrobial activity against Aspergillus oryzae MTCC 3567 at 750 ug/ml after 72 hrs by cup plate method; details: MTCC 3567, 72 h, read-out: IZ
Klebsiella pneumoniae [13] = experiment: Antimicrobial activity against Klebsiella pneumoniae NCTC 13368 at 750 ug/ml after 24 hrs by cup plate method; details: NCTC 13368, 24 h, read-out: IZ
Klebsiella pneumoniae [14] = experiment: Antimicrobial activity against Klebsiella pneumoniae NCTC 13368 at 1000 ug/ml after 24 hrs by cup plate method; details: NCTC 13368, 24 h, read-out: IZ
Escherichia coli [15] = experiment: Antimicrobial activity against Escherichia coli MTCC 723 at 750 ug/ml after 24 hrs by cup plate method; details: MTCC 723, 24 h, read-out: IZ
Escherichia coli [16] = experiment: Antimicrobial activity against Escherichia coli MTCC 723 at 1000 ug/ml after 24 hrs by cup plate method; details: MTCC 723, 24 h, read-out: IZ
Aspergillus niger [17] = experiment: Antimicrobial activity against Aspergillus niger MTCC 281 at 1000 ug/ml after 72 hrs by cup plate method; details: MTCC 281, 72 h, read-out: IZ
Aspergillus flavus [18] = experiment: Antimicrobial activity against Aspergillus flavus MTCC 1973 at 1000 ug/ml after 72 hrs by cup plate method; details: MTCC 1973, 72 h, read-out: IZ
Aspergillus terreus [19] = experiment: Antimicrobial activity against Aspergillus terreus MTCC 1782 at 500 ug/ml after 72 hrs by cup plate method; details: MTCC 1782, 72 h, read-out: IZ
[20] = system: Radical scavenging activity; experiment: Antioxidant activity assessed as DPPH radical scavenging activity at 100 ug/ml
Klebsiella pneumoniae [21] = experiment: Antimicrobial activity against Klebsiella pneumoniae NCTC 13368 at 500 ug/ml after 24 hrs by cup plate method; details: NCTC 13368, 24 h, read-out: IZ
Aspergillus oryzae [22] = experiment: Antimicrobial activity against Aspergillus oryzae MTCC 3567 at 1000 ug/ml after 72 hrs by cup plate method; details: MTCC 3567, 72 h, read-out: IZ
Staphylococcus aureus [23] = experiment: Antimicrobial activity against Staphylococcus aureus ATCC 29513 at 500 ug/ml after 24 hrs by cup plate method; details: ATCC 29513, 24 h, read-out: IZ
Aspergillus flavus [24] = experiment: Antimicrobial activity against Aspergillus flavus MTCC 1973 at 750 ug/ml after 72 hrs by cup plate method; details: MTCC 1973, 72 h, read-out: IZ
Aspergillus terreus [25] = experiment: Antimicrobial activity against Aspergillus terreus MTCC 1782 at 1000 ug/ml after 72 hrs by cup plate method; details: MTCC 1782, 72 h, read-out: IZ
[26] = Antioxidant activity assessed as metal chelating activity by measuring inhibition of ferrozine-Fe2+ complex formation at 25 to 100 ug/ml
[27] = Antioxidant activity assessed as ferric ion reducing activity at 100 ug/ml by FRAP assay

| Structure (SMILES) | zone of inhibition at 500 µg/mL (Aspergillus oryzae [1]) [mm] | zone of inhibition at 1000 µg/mL (Pseudomonas aeruginosa [2]) [mm] | zone of inhibition at 750 µg/mL (Staphylococcus aureus [3]) [mm] | zone of inhibition at 500 µg/mL (Aspergillus flavus [4]) [mm] | zone of inhibition at 1000 µg/mL (Staphylococcus aureus [5]) [mm] | zone of inhibition at 500 µg/mL (Pseudomonas aeruginosa [6]) [mm] | zone of inhibition at 750 µg/mL (Pseudomonas aeruginosa [7]) [mm] | zone of inhibition at 500 µg/mL (Escherichia coli [8]) [mm] | zone of inhibition at 750 µg/mL (Aspergillus terreus [9]) [mm] | zone of inhibition at 750 µg/mL (Aspergillus niger [10]) [mm] | zone of inhibition at 500 µg/mL (Aspergillus niger [11]) [mm] | zone of inhibition at 750 µg/mL (Aspergillus oryzae [12]) [mm] | zone of inhibition at 750 µg/mL (Klebsiella pneumoniae [13]) [mm] | zone of inhibition at 1000 µg/mL (Klebsiella pneumoniae [14]) [mm] | zone of inhibition at 750 µg/mL (Escherichia coli [15]) [mm] | zone of inhibition at 1000 µg/mL (Escherichia coli [16]) [mm] | zone of inhibition at 1000 µg/mL (Aspergillus flavus [18]) [mm] | zone of inhibition at 500 µg/mL (Aspergillus terreus [19]) [mm] | zone of inhibition at 500 µg/mL (Klebsiella pneumoniae [21]) [mm] | zone of inhibition at 1000 µg/mL (Aspergillus oryzae [22]) [mm] | also measured |
| --- | --- | --- | --- | --- | --- | --- | --- | --- | --- | --- | --- | --- | --- | --- | --- | --- | --- | --- | --- | --- | --- |
| Cc1ccc(C2=CC(c3c(-c4ccccc4)[nH]c4ccccc34)c3c(N)nc(=O)[nH]c3O2)cc1 (stereo unspecified) | 10 | 3 | 3 | 3 | 5 | 5 | 3 | 7 | 3 | 3 | 5 | 10 | 4 | 3 | 7 | 8 | 3 | 3 | 6 | 10 | zone of inhibition at 1000 µg/mL (Aspergillus niger [17]): 2 mm; Activity [20]: Active; zone of inhibition at 500 µg/mL (Staphylococcus aureus [23]): 5 mm; zone of inhibition at 750 µg/mL (Aspergillus flavus [24]): 3 mm; zone of inhibition at 1000 µg/mL (Aspergillus terreus [25]): 3 mm; Activity [26]: Active |
| N#CC1=C(N)OC(c2ccccc2)=CC1c1c(-c2ccccc2)[nH]c2ccccc12 (stereo unspecified) | 9 | 9 | 10 | 10 | 10 | 9 | 9 | 10 | 5 | 5 | 6 | 9 | 13 | 13 | 8 | 8 | 10 | 9 | 13 | 5 | zone of inhibition at 1000 µg/mL (Aspergillus niger [17]): 10 mm; Activity [20]: Active; zone of inhibition at 500 µg/mL (Staphylococcus aureus [23]): 10 mm; zone of inhibition at 750 µg/mL (Aspergillus flavus [24]): 10 mm; zone of inhibition at 1000 µg/mL (Aspergillus terreus [25]): 3 mm; Activity [26]: Active |
| Cc1ccc(C2=CC(c3c(-c4ccccc4)[nH]c4ccc(C)cc34)c3c(N)n[nH]c3O2)cc1 (stereo unspecified) | 10 | 4 | 5 | 4 | 5 | 8 | 4 | 8 | 0 | 9 | 9 | 9 | 10 | 10 | 9 | 10 | 3 | 0 | 11 | 9 | Activity [20]: Active; zone of inhibition at 500 µg/mL (Staphylococcus aureus [23]): 7 mm; zone of inhibition at 750 µg/mL (Aspergillus flavus [24]): 4 mm; zone of inhibition at 1000 µg/mL (Aspergillus terreus [25]): 0 mm; Activity [26]: Active |
| Nc1n[nH]c2c1C(c1c(-c3ccccc3)[nH]c3ccc(Cl)cc13)C=C(c1ccc(Cl)cc1)O2 (stereo unspecified) | 10 | 9 | 14 | 9 | 14 | 10 | 9 | 13 | 9 | 10 | 10 | 10 | 13 | 13 | 13 | 14 | 5 | 9 | 13 | 10 | Activity [27]: Active; zone of inhibition at 1000 µg/mL (Aspergillus niger [17]): 11 mm; zone of inhibition at 500 µg/mL (Staphylococcus aureus [23]): 14 mm; zone of inhibition at 750 µg/mL (Aspergillus flavus [24]): 9 mm; zone of inhibition at 1000 µg/mL (Aspergillus terreus [25]): 8 mm; Activity [26]: Active |
| Cc1ccc(C2=CC(c3c(-c4ccccc4)[nH]c4ccccc34)C(C#N)=C(N)O2)cc1 (stereo unspecified) | 5 | 6 | 0 | 8 | 0 | 9 | 8 | 10 | 6 | 8 | 8 | 9 | 6 | 5 | 10 | 10 | 10 | 8 | 8 | 8 | Activity [27]: Active; zone of inhibition at 1000 µg/mL (Aspergillus niger [17]): 8 mm; zone of inhibition at 500 µg/mL (Staphylococcus aureus [23]): 0 mm; zone of inhibition at 750 µg/mL (Aspergillus flavus [24]): 9 mm; zone of inhibition at 1000 µg/mL (Aspergillus terreus [25]): 5 mm; Activity [26]: Active |
| Cc1ccc(C2=CC(c3c(-c4ccccc4)[nH]c4ccc(Cl)cc34)c3c(N)n[nH]c3O2)cc1 (stereo unspecified) | 8 | 13 | 14 | 3 | 14 | 12 | 12 | 4 | 4 | 8 | 9 | 5 | 12 | 12 | 2 | 2 | 3 | 5 | 12 | 5 | Activity [27]: Active; zone of inhibition at 1000 µg/mL (Aspergillus niger [17]): 0 mm; zone of inhibition at 500 µg/mL (Staphylococcus aureus [23]): 14 mm; zone of inhibition at 750 µg/mL (Aspergillus flavus [24]): 3 mm; zone of inhibition at 1000 µg/mL (Aspergillus terreus [25]): 4 mm; Activity [26]: Active |
| Cc1ccc2[nH]c(-c3ccccc3)c(C3C=C(c4ccc(Cl)cc4)Oc4[nH]nc(N)c43)c2c1 (stereo unspecified) | 8 | 5 | 0 | 5 | 0 | 6 | 6 | 9 | 10 | 3 | 5 | 7 | 12 | 12 | 8 | 8 | 2 | 10 | 12 | 7 | zone of inhibition at 1000 µg/mL (Aspergillus niger [17]): 2 mm; Activity [20]: Active; zone of inhibition at 500 µg/mL (Staphylococcus aureus [23]): 2 mm; zone of inhibition at 750 µg/mL (Aspergillus flavus [24]): 5 mm; zone of inhibition at 1000 µg/mL (Aspergillus terreus [25]): 10 mm; Activity [26]: Active |
